{
  "source": "ChEMBL document CHEMBL1201862",
  "about": "“PubChem BioAssay data set” (2004)",
  "key": {"[1]": {"assay": "M. tuberculosis H37Rv growth inhibitors, H37Rv strain (AID 1626)", "assay_type": "functional"}, "[2]": {"target": "T1, RNA-binding protein pos-1 (Caenorhabditis elegans, UniProt G5EF15)", "T1 sequence (G5EF15 whole entry)": "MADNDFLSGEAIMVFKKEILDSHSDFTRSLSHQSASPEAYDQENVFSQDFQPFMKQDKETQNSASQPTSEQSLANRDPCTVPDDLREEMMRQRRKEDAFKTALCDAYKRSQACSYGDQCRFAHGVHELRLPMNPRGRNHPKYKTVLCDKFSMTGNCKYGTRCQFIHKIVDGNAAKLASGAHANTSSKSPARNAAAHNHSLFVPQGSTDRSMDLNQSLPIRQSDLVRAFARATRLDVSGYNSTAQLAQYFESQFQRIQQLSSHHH", "assay": "disruptors of C. elegans POS-1 RNA interaction – biochemical, fluorescence polarization, dose response (AID 1964);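 further: purified POS-1 fused to maltose binding protein made in E. coli; potency of compounds blocking POS-1 binding to fluorescent RNA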"}, "[3]": {"assay": "NIH-3T3 fibroblast cytotoxicity, dose response, cytotoxicity control, cell-based, fluorescence, Alamar Blue, secondary assay (AID 2327);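 further: NIH-3T3 mouse fibroblasts cultured with fluconazole at 8 µg/mL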", "assay_type": "functional"}, "[4]": {"target": "ATP-dependent molecular chaperone HSP82 (Candida albicans (strain WO-1) (Yeast), UniProt C4YTQ8)", "sequence (C4YTQ8 whole entry)": "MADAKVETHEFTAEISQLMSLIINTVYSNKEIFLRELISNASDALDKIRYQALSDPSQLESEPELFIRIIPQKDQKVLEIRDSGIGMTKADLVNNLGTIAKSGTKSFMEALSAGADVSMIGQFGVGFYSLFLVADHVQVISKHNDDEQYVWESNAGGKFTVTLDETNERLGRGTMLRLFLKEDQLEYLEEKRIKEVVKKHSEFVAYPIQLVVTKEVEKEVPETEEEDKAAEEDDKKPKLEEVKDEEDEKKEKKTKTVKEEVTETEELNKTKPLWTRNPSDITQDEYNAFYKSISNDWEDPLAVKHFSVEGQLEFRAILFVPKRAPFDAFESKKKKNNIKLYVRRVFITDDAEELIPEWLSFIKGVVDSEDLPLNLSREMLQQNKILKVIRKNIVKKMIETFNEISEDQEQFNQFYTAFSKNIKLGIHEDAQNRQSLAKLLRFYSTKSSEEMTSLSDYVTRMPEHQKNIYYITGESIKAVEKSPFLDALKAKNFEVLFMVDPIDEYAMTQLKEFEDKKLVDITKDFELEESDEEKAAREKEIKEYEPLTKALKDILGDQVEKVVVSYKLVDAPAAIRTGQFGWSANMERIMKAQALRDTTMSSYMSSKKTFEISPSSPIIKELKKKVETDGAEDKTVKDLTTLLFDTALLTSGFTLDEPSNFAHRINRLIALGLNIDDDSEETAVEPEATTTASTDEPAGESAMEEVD", "assay": "steroid-induced GRE reporter decrease in yeast – S. cerevisiae, luminescence, Hsp90 inhibitor project, dose response (AID 2400);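 further: beta-galactosidase luminescence from glucocorticoid response element reporter as proxy for Hsp90 function; inhibitor potency where signal loss means Hsp90 inhibition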", "assay_type": "functional, cell-based"}, "[5]": {"target": "T2, Serine/threonine-protein phosphatase (Candida dubliniensis (strain CD36 / CBS 7987 / NCPF 3949 / NRRLY-17841) (Yeast), UniProt B9W6M3)", "T2 sequence (B9W6M3 whole entry)": "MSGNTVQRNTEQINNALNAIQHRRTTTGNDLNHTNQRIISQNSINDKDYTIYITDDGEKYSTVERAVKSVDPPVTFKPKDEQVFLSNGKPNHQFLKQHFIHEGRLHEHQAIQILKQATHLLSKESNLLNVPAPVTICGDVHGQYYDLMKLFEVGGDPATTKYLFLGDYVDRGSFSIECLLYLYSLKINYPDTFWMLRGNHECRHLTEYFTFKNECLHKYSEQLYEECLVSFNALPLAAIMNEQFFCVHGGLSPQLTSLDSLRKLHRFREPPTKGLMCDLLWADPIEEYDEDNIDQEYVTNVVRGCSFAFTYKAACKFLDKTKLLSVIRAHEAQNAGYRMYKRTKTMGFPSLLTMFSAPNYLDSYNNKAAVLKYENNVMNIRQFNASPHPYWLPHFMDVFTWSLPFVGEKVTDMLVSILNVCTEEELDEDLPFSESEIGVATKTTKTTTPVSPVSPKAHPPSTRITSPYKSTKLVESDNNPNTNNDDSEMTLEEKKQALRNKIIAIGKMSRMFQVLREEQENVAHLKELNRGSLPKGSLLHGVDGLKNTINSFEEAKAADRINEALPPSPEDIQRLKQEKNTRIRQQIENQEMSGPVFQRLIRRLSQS", "assay": "blockers of CaCl2-induced CDRE-lacZ signaling – S. cerevisiae, luminescence, secondary, dose response (AID 2388);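 further: yeast reporter cells carrying a calcineurin-responsive lacZ construct stimulated with calcium chloride; luminescent beta-galactosidase reporter signal in whole cells rather than isolated phosphatase activity; potency for inhibition where a drop in reporter signal means calcineurin blockade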", "assay_type": "functional, cell-based"}, "[6]": {"target": "Protein-tyrosine kinase 2-beta (Homo sapiens, UniProt Q14289)", "sequence (Q14289 whole entry)": "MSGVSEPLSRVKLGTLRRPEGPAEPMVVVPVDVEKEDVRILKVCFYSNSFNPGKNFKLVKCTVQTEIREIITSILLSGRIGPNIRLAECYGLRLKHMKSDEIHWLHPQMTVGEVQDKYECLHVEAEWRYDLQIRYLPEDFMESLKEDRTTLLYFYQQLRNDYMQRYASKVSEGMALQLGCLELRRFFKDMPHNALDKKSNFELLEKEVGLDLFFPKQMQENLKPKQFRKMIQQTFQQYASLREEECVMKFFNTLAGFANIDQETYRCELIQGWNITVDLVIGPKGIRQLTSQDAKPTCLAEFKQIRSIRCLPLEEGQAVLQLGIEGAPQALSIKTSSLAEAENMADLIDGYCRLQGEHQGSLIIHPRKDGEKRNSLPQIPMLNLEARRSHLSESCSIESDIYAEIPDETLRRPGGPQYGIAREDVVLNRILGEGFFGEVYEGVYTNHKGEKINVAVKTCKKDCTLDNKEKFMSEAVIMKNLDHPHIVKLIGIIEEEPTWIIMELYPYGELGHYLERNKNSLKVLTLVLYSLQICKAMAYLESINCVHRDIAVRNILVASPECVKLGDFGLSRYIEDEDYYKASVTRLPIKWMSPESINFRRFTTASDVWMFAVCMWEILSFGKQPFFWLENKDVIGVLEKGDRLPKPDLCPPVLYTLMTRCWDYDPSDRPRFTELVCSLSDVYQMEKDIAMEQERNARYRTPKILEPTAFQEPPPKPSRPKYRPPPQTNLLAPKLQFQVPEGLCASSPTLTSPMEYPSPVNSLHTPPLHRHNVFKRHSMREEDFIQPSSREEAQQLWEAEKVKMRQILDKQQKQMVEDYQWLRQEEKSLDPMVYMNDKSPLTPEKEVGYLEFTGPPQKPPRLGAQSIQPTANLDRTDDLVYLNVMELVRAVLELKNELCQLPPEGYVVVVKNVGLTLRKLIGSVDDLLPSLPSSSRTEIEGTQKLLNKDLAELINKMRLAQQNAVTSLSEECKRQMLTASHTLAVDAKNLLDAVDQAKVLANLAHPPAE"}, "[7]": {"target": "72 kDa type IV collagenase (Homo sapiens, UniProt P08253)", "sequence (P08253 whole entry)": "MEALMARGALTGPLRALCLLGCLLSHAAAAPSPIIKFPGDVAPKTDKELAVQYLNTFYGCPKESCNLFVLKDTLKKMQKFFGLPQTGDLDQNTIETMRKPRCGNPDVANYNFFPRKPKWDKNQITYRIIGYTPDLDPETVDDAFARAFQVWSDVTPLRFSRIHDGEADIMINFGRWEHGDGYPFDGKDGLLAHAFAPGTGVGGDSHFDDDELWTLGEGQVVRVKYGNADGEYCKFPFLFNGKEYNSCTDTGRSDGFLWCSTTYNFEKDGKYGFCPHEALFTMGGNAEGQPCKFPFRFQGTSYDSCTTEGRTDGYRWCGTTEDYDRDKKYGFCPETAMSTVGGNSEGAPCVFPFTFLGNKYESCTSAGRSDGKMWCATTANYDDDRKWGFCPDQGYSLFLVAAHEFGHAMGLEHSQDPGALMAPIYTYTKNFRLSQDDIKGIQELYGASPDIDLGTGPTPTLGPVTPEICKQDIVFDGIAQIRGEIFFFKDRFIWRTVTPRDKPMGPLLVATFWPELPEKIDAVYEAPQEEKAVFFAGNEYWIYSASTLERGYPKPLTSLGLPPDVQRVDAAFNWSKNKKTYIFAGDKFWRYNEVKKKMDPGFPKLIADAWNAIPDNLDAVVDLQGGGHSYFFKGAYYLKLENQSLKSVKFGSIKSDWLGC", "assay": "Dose Response validation of uHTS RPN11 inhibitor hits using a MMP-2 Fluorescence assay.", "assay_type": "functional"}, "[8]": {"assay": "fluconazole-exposed Candida albicans growth modulators – fluorescence, retest, confirmation (AID 2467)", "assay_type": "functional, cell-based"}, "[9]": {"target": "26S proteasome non-ATPase regulatory subunit 14 (Homo sapiens, UniProt O00487)", "sequence (O00487 whole entry)": "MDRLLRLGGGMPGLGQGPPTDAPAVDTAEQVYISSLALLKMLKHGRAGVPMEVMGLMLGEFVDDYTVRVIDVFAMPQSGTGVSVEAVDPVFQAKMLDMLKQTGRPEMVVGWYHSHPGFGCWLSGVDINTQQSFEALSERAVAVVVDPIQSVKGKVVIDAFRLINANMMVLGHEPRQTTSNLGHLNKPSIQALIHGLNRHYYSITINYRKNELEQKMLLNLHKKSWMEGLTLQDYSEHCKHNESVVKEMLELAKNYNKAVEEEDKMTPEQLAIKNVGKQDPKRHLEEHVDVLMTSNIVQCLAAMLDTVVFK", "assay": "inhibition of proteasome subunit RPN11 – biochemical, fluorescence polarization, uHTS hits, confirmation (AID 602368)", "assay_type": "functional"}, "[10]": {"assay": "viability of PTEN-deleted HCT116 cells – cell-based, HCT116 PTEN knockout, dose response (AID 1047);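 further: HCT116 colon tumor cells with PTEN knocked out; cells exposed to compound for 60 hours before readout; potency for loss of cell viability measured by luminescence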", "assay_type": "functional"}, "[11]": {"target": "T3, Zinc finger protein mex-5 (Caenorhabditis elegans, UniProt Q9XUB2)", "T3 sequence (Q9XUB2 whole entry)": "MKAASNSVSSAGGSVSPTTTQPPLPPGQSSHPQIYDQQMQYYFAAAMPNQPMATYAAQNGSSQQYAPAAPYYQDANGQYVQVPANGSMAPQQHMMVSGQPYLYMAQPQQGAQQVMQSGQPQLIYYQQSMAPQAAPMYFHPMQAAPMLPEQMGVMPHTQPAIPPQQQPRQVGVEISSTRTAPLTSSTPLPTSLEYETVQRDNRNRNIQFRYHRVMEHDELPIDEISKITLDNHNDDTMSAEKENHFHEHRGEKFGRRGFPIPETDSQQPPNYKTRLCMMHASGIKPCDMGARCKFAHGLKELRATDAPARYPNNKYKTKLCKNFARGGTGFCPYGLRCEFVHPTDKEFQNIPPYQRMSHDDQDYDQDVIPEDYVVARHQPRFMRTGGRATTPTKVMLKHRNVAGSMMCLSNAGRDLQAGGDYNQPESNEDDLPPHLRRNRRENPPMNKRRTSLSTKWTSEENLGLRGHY", "assay": "potency of MEX-5 RNA-binding blockers – biochemical, C. elegans, fluorescence polarization, dose response (AID 1960)"}, "[12]": {"assay": "viability of HCT116 lacking mutant beta-catenin – cell-based, human colon tumor, dose response (AID 1045);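 further: HCT116 colon tumor cells with beta catenin knocked out; cells exposed to compound for 60 hours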", "assay_type": "functional"}, "Prothrombin": {"target": "Prothrombin (Bos taurus, UniProt P00735)", "assay": "thrombin protease inhibitors – biochemical, fluorescence polarization, uHTS hits, dose response (AID 602369)", "assay_type": "functional"}, "Estrogen receptor beta": {"target": "Estrogen receptor beta (Homo sapiens, UniProt Q92731)", "sequence (Q92731 whole entry)": "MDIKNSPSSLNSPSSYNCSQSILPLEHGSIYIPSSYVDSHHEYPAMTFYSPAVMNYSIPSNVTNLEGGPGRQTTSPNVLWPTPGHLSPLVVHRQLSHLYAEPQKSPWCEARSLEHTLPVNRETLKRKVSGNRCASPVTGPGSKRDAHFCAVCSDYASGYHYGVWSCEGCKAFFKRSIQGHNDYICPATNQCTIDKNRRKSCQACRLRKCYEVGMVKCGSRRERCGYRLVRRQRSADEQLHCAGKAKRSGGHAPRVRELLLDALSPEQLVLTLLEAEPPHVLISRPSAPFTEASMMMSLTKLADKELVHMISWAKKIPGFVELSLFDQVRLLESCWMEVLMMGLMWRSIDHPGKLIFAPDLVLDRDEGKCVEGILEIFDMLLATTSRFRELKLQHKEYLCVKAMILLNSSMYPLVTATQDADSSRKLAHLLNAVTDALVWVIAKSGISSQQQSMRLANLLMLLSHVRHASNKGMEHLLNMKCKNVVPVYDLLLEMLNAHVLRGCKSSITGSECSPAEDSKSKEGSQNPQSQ", "assay": "blockers of SRC-3 recruitment to ERβ – biochemical, ELISA, streptavidin-HRP readout, orthogonal assay, confirmation (AID 1060)"}, "Estrogen receptor": {"target": "T4, Estrogen receptor (Homo sapiens, UniProt P03372)", "T4 sequence (P03372 whole entry)": "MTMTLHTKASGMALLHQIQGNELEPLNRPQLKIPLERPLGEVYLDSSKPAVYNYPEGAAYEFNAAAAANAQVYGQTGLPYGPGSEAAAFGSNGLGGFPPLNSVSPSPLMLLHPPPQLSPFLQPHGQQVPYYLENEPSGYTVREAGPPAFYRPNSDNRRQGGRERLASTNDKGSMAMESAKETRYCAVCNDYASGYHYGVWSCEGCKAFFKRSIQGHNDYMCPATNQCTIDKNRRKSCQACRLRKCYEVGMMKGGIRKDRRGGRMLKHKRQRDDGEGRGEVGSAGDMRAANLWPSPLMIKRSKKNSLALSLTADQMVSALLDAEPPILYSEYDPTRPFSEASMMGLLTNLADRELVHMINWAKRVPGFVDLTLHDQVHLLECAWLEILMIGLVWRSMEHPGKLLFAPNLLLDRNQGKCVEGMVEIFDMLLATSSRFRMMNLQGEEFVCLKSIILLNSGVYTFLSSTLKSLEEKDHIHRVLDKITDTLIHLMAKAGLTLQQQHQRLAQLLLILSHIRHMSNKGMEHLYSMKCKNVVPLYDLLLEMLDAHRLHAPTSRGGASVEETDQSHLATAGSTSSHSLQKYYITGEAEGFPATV", "assay": "blockers of SRC-3 recruitment to ERα – biochemical, ELISA, streptavidin-HRP readout, orthogonal assay, confirmation (AID 1079)"}, "Bcl-2-like protein 10": {"target": "Bcl-2-like protein 10 (Homo sapiens, UniProt Q9HD36)", "sequence (Q9HD36 whole entry)": "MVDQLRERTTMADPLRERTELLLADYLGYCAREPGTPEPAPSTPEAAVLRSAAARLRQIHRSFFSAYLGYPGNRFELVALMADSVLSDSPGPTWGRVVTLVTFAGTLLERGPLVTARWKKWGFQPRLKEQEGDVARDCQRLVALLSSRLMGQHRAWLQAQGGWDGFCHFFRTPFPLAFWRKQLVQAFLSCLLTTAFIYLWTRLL", "assay": "Concentration-response of Bcl-B inhibitors by biochemical FP with TR3 (AID 1243)", "assay_type": "functional"}, "Aminopeptidase N": {"target": "T5, Aminopeptidase N (Plasmodium falciparum FcB1/Columbia, UniProt O96935)", "T5 sequence (O96935 whole entry)": "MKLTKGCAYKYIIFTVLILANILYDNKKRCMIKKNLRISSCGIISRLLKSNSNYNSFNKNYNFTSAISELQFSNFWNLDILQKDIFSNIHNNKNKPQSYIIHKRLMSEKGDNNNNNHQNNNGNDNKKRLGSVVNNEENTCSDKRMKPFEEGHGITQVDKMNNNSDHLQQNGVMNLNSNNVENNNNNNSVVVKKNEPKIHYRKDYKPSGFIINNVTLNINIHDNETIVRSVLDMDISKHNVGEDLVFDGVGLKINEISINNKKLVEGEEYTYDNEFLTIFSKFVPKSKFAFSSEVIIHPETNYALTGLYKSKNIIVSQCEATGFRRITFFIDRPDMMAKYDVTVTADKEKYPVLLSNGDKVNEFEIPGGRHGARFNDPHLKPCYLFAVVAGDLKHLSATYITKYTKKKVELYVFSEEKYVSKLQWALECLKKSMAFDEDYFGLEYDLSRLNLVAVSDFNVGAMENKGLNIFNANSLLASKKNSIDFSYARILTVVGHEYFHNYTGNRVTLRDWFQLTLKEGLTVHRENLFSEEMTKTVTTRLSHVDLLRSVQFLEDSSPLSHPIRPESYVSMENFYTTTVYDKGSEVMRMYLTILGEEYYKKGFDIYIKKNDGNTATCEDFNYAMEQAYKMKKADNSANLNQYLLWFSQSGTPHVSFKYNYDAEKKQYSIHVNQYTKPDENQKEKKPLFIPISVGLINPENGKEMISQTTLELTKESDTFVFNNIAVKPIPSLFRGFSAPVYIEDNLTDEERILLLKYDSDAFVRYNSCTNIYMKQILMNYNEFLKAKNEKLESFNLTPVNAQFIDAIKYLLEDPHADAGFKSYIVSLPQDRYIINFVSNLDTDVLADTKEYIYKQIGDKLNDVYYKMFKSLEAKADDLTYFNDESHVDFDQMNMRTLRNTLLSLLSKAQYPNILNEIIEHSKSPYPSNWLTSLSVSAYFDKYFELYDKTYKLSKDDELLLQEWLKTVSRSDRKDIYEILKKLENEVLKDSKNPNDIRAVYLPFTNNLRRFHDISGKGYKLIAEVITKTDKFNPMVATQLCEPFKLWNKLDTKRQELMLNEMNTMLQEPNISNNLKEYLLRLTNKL", "assay": "malaria alanyl aminopeptidase activity blockers – biochemical, fluorogenic H-Leu-NHMec substrate, 1536-well (AID 1445)", "design": "species or system Plasmodium falciparum 3D7, 3D7"}, "Aspartyl aminopeptidase": {"target": "Aspartyl aminopeptidase (Plasmodium falciparum 3D7, UniProt Q8I2J3)", "sequence (Q8I2J3 whole entry)": "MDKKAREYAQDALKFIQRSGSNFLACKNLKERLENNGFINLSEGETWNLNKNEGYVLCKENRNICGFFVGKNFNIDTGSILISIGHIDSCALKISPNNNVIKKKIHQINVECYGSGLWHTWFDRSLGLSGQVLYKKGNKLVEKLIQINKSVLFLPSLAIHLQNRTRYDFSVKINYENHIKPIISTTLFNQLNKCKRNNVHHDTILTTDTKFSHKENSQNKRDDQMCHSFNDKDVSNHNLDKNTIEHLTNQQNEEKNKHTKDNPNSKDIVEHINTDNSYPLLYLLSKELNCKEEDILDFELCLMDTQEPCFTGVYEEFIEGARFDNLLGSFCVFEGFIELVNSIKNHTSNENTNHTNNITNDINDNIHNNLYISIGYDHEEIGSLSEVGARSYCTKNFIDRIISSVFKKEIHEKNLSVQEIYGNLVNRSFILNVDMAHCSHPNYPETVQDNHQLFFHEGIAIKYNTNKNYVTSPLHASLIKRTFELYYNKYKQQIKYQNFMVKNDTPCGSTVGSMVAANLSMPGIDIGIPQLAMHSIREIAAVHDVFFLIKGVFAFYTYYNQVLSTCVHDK", "assay": "Counterscreen for inhibitors of M1 and M17 aminopeptidases: QFRET-based biochemical high throughput dose response assay for inhibitors of the Plasmodium falciparum M18 Aspartyl Aminopeptidase (PFM18AAP). [Related PubChem assays: 1619 (Screening assay (M17LAP inhibitors).), 1445 (Screening assay (M1AAP inhibitors).)]"}, "Procathepsin L": {"target": "Procathepsin L (Homo sapiens, UniProt P07711)", "sequence (P07711 whole entry)": "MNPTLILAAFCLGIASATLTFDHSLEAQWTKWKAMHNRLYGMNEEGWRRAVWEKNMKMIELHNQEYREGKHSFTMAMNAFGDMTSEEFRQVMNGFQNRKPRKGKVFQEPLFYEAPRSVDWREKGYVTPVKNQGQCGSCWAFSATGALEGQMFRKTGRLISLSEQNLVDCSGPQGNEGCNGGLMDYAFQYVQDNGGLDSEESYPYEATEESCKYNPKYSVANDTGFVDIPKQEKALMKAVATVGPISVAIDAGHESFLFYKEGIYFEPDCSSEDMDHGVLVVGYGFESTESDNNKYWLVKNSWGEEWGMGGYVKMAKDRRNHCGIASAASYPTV", "assay": "CTSL1 protease inhibition – biochemical, QFRET, 1536-well, counter-screen for M1/M17 aminopeptidase inhibitor project, dose response (AID 2214)"}},
  "note": "Activity calls are given as the source filed them.",
  "data": [
    {"smiles": "CCOC(=O)c1ccc(NC(=O)c2nnc(O)c3ccccc23)cc1", "values": [
      {"measurement": "IC50", "setting": "[1]", "result": "> 100 µM (active)"}
    ]},
    {"smiles": "COC(=O)c1ccc(COc2ccc(/C=C(\\C#N)c3nc4ccccc4[nH]3)cc2OC)o1", "values": [
      {"measurement": "EC50", "setting": "[2]", "result": "> 300 µM (not active)"},
      {"measurement": "EC50", "setting": "[3]", "result": "> 160 µM (inconclusive)"},
      {"measurement": "EC50", "setting": "[4]", "result": "> 160 µM (inactive)"},
      {"measurement": "EC50", "setting": "[5]", "result": "> 180 µM (inactive)"},
      {"measurement": "IC50", "setting": "[6]", "result": "> 69.5 µM (not active)"},
      {"measurement": "IC50", "setting": "[7]", "result": "> 100 µM (inactive)"},
      {"measurement": "EC50", "setting": "[8]", "result": "3.83 µM (active)"},
      {"measurement": "IC50", "setting": "[9]", "result": "4.93 µM (active)"},
      {"measurement": "EC50", "setting": "[10]", "result": "79.7 µM (active)"},
      {"measurement": "EC50", "setting": "[11]", "result": "> 300 µM (not active)"},
      {"measurement": "EC50", "setting": "[12]", "result": "88.4 µM (active)"},
      {"measurement": "IC50", "setting": "Prothrombin", "result": "11.4 µM (active)"}
    ]},
    {"smiles": "N#Cc1ccccc1N1CCN(C(=O)CCCCCn2c(=S)[nH]c3ccccc3c2=O)CC1", "values": [
      {"measurement": "IC50", "setting": "Estrogen receptor beta", "result": "0.957 µM (not active)"},
      {"measurement": "IC50", "setting": "Estrogen receptor", "result": "0.09 µM (not active)"}
    ]},
    {"smiles": "Cc1ccc(C)n1-c1cc(C(=O)O)cc(C(=O)O)c1", "values": [
      {"measurement": "EC50", "setting": "Bcl-2-like protein 10", "result": "0.54 µM (active)"}
    ]},
    {"smiles": "O=C(NCCC1=CCCCC1)C1CCN(S(=O)(=O)c2ccc(Br)s2)CC1", "values": [
      {"measurement": "IC50", "setting": "Aminopeptidase N", "result": "13.2 µM (active)"},
      {"measurement": "IC50", "setting": "Aspartyl aminopeptidase", "result": "> 73.5 µM (not active)"},
      {"measurement": "IC50", "setting": "Procathepsin L", "result": "> 59.6 µM (not active)"}
    ]}
  ]
}
